The test system of one assay is Jurkat cells. As to the kind of experiment: Viability of WT or ATAD1Δ Jurkat cells after treatment with MCL1 inhibitor. In kind it is cell-based, human. The note with it: ATAD1Δ vs WT Jurkat cells, 24 hr treatment. Here is the method:
FIGS. 2A-2G show genome-wide CRISPR screens identify genetic interactions with ATAD1 (A) Schematic of CRISPR screening strategy (B) Generation of clonal ATAD1 knockout in a PTEN-null genetic background of Jurkat cells and proliferation rate of ATAD1Δ and WT Jurkat cells in RPMI1640 media (C) Volcano plot of CRISPR screening results; CRISPR scores were defined as the mean Log2 fold-change of sgRNAs targeting a given gene. Differential CRISPR scores (dCS) were calculated by subtracting the WT CS from the ATAD1Δ CS. dCS combined is the sum of dCS values for each clone. P-values were calculated for each gene using Kolmogorov-Smirnov with Benjamini Hochberg correction and Fisher's Method for P value meta-analysis. Dashed lines demarcate dCS<−2 and Padj<0.05 (D) DepMap data showing correlation of MARCH5 dependency and MCL1 dependency (E) Western blot of whole cell lysates from WT or ATAD1Δ Jurkat cells showing steady-state levels of BIM, MCL1, and FIS1, a non-BCL2 family control (F) Quantification of BIMEL levels in ATAD1Δ cells; n=6 independent experiments (G) Viability of WT or ATAD1Δ Jurkat cells after 24 hr treatment with the MCL1 inhibitor, AMG176.
Thus, like MARCH5, ATAD1 modulates members the BCL2 family and affects apoptotic priming as measured by sensitivity to a BH3-mimetic. […]

For a further assay, the system named is H4 glioma cells. As to the kind of experiment: BH3 profiling (cytochrome C release / MOMP) in permeabilized H4 glioma cells. In kind it is cell-based. Particulars: compared across ATAD1 status. Here is the method:
Cells were treated with doxycycline (250 ng/mL) for 24 hr (F) Co-immunoprecipitation of ATAD1-FLAG/HA and GFP-BIMEL in cells stably expressing ATAD1-FLAG or EV and transiently transfected overnight with GFP-BIMEL in the presence of zVAD-fmk (G) RPMI7951 cells were treated with MG132 (10 μM) for 4 hr, whole-cell lysates were prepped and analyzed by Western blot. (H) Schematic of reconstituted proteoliposome extraction assay (I) Extraction assay using His-ATAD1 and 3×FLAG-BIML (lanes 1-4, 9-20) or the negative control TA protein, 3×FLAG-Fis1 (lanes 5-8); GST-tagged SGTA and calmodulin (CaM) are included as chaperones to catch extracted TA protein. “I”=Input, “FT”=flow-through, “W”=final wash, “E”=elution. Eluted fractions represent TA proteins extracted by ATAD1 and bound by GST-tagged chaperones; compare elution “E” to input “I”. † denotes P<0.0001
To gain insight into how loss of ATAD1 affects apoptotic priming, BH3 profiling was conducted (33). Here, permeabilized cells are treated with BH3 peptides derived from different pro-apoptotic BH3-only proteins, and mitochondrial outer membrane permeability (MOMP) is directly measured by detecting cytochrome C release from mitochondria (FIG. 3A). […] This priming reflects a change in how the cell regulates the endogenous BIM protein. […]

The subject of a further assay is PC3 cells. As to the kind of experiment: Viability of PC3 cells with ATAD1 deletion or overexpression treated with bortezomib. In kind it is cell-based. Here is the method:
(§1) FIGS. 8A-8I show restoring ATAD1 expression in Del(10q23) cells increases resistance to proteasome inhibitors. (A) RPMI7951 cells were treated for 16 hr with bortezomib or carfilzomib and viability was measured by Cell Titer Glo. (B) Time-course of RPMI7951 cells treated with bortezomib (3.125 nM) n=3 biological replicates (C) SW1088 cells were cultured in 5 nM bortezomib for 48 hr and RPMI7951 cells were cultured for 24 hr and viability was assessed by crystal violet staining (D) H4 cells were treated with bortezomib for 24 hr and assessed by Cell Titer Glo (E) ATAD1 addback rescues mitochondrial morphology phenotype in response to bortezomib in SW1088 cells. Cells were treated with BTZ (10 nM) for 12 hr and stained with MitoTracker Red, then imaged on a widefield fluorescence microscope (F) Expression of ATAD1 in DepMap cell lines, highlighting PC3 cells (ATAD1 hemizygous), and two Del10q23 cell lines (G) Generation of ATAD1-deficient, polyclonal PC3 cells using stable expression of sgATAD1 (in LCv2G), with untargeted Cas9 only as a control (LCv2G) (H) Deletion of ATAD1 increases sensitivity to bortezomib in PC3 cells. […]
Viability was determined by Cell Titer Glo (Promega) according to the manufacturer's recommendation, with some modifications. […] Luminescence was measured using a Biotek Synergy Neo2 microplate reader. […]

The subject of assay [1] is Del10q23 cells (RPMI7951). Put plainly: Apoptosis by Western blot of whole cell lysate after bortezomib. In kind it is cell-based. The note with it: RPMI7951, 10 nM, 8 hr. Here is the method:
(§2) FIGS. 4A-4K show ATAD1 protects cells from apoptosis induced by proteasome dysfunction. (A) Viability of SW1088 cells transduced with EV or ATAD1-FLAG and treated for 24 hr with indicated drugs (B) Time-course of viability in response to bortezomib treatment in SW1088 cells (C) Western blot of RPMI7951 whole cell lysate treated with 10 nM bortezomib for 8 hr (D) Quantification of C (E) Viability of ATAD1-null vs. re-expressing RPMI7951 cells in response to 16 hr treatment with BTZ and the pan-caspase inhibitor, zVAD-FMK (20 μM) or DMSO (zVAD vehicle) (F) Same as E, but viability was measured by crystal violet staining and quantified in (G). (H) Schematic describing the role of ATAD1 in proteasome inhibitor toxicity (I) Tumor size of subcutaneous xenografts of SW1088 cells in NOD/SCID mice over time (J) Incidence of palpable tumors, or tumor-free survival, over time (K) Proliferation of cultured SW1088 cells as measured with crystal violet staining, n=2 independent experiments. † represents P<0.0001
Whole cell lysates were prepared by scraping cells directly into RIPA buffer supplemented with protease and phosphatase inhibitors (Sigma Aldrich P8340, Roche Molecular 04906845001), incubated on ice for 30 minutes with vortexing every 10 min, and then spun at 16,000 g for 10 minutes at 4° C. to remove insoluble material. Supernatant was saved as lysate. […]

In assay [2] the test system is Del10q23 cells (SW1088 and H4 glioma and RPMI7951 melanoma). As to the kind of experiment: Viability of Del10q23 cells treated with proteasome inhibitors (Cell Titer Glo, crystal violet). In kind it is cell-based. Here is the method:
as §2, §1
Viability was determined by Cell Titer Glo (Promega) according to the manufacturer's recommendation, with some modifications. […] Luminescence was measured using a Biotek Synergy Neo2 microplate reader. Luminescence values were normalized on each plate to untreated cells on the same plate, and expressed as percent.
Cells cultured in 12 or 6 well plates were washed twice with PBS then fixed with 4% paraformaldehyde (Sigma Aldrich) for 30 minutes at room temperature. […] Absorbance was measured at 590 nm using a Biotek Synergy Neo2 microplate reader, and values were normalized to those from untreated cells of the same genotype on each plate.

A further assay deals with RPMI7951 cells. As to the kind of experiment: Viability of ATAD1-null vs. re-expressing RPMI7951 cells with BTZ and pan-caspase inhibitor. In kind it is cell-based. Particulars: 16 hr BTZ, zVAD-FMK 20 μM. How it is done: as §2
Viability was determined by Cell Titer Glo (Promega) according to the manufacturer's recommendation, with some modifications. […] Luminescence was measured using a Biotek Synergy Neo2 microplate reader. Luminescence values were normalized on each plate to untreated cells on the same plate, and expressed as percent. […]

Setting [3] is: Del10q23 cells (ATAD1-null, EV).
The mark [4] stands for this setting: Del10q23 cells with expression of ATAD1.

Residues, ends and D or L forms follow the SMILES beside them. *: point of attachment. Cbz = O=C(OCc1ccccc1)*; CH2F = FC*

On to `CO[C@H]1/C=C/C[C@H](C)[C@@H](C)S(=O)(=O)NC(=O)c2ccc3c(c2)N(C[C@@H]2CC[C@H]21)C[C@@]1(CCCc2cc(Cl)ccc21)CO3` [AMG176], for which the “apoptotic priming (sensitivity to BH3-mimetic, viability)” value in the assay with Jurkat cells is “primed cells for apoptosis induced by AMG176”.

Turning to `CC(=O)NC(C)(C)C(=O)N1CCC[C@H]1C(=O)NC(C)(C)C(=O)N[C@@H](C)C(=O)NC(C)(C)C(=O)N[C@@H](C)C(=O)N[C@@H](CCC(N)=O)C(=O)NC(C)(C)C(=O)N[C@H](C(=O)NC(C)(C)C(=O)NCC(=O)N[C@@H](CC(C)C)C(=O)NC(C)(C)C(=O)N1CCC[C@H]1C(=O)N[C@H](C(=O)NC(C)(C)C(=O)NC(C)(C)C(=O)N[C@@H](CCC(=O)O)C(=O)N[C@@H](CCC(N)=O)C(=O)N[C@H](CO)Cc1ccccc1)C(C)C)C(C)C` [Alamethicin] (HELM PEPTIDE1{[ac].[Aib].P.[Aib].A.[Aib].A.Q.[Aib].V.[Aib].G.L.[Aib].P.V.[Aib].[Aib].E.Q.[OC[C@H](Cc1ccccc1)N[*:1]]}$$$$V2.0), the “cytochrome C release” value in the assay on H4 glioma cells is recorded as “induced cytochrome C release equally regardless of ATAD1 status”.

Take `CC(C)C[C@H](NC(=O)[C@H](Cc1ccccc1)NC(=O)c1cnccn1)B(O)O` [bortezomib]: in the assay on PC3 cells (deletion of the remaining allele of ATAD1), the “sensitivity (viability)” value is on record as “sensitized to bortezomib”. In addition, the “resistance (viability)” value with PC3 cells (overexpression of ATAD1 (not ATAD1E193Q)) is “increased resistance to bortezomib”. The apoptosis entry is reported as “only minimally” in assay [1] (ATAD1 re-expressing cells) and “robust apoptosis” in assay [1] (Del10q23-EV cells). Further, the loss of viability entry in assay [2] (setting [3]) was “potently and rapidly induced a loss of viability”; in assay [2] (setting [4]), “mitigated by expression of ATAD1”.

For `CC(C)C[C@H](NC(=O)[C@H](CCc1ccccc1)NC(=O)CN1CCOCC1)C(=O)N[C@@H](Cc1ccccc1)C(=O)N[C@@H](CC(C)C)C(=O)[C@@]1(C)CO1` [carfilzomib], the loss of viability entry was “potently and rapidly induced a loss of viability” in assay [2] (setting [3]); “mitigated by expression of ATAD1” in assay [2] (setting [4]).

As for `COC(=O)C[C@H](NC(=O)[C@H](C)NC(=O)[C@@H](NC(=O)OCc1ccccc1)C(C)C)C(=O)CF` [zVAD] (Cbz-Val-Ala-Asp(OMe)-CH2F), the “effect on viability under bortezomib” value with RPMI7951 cells is on record as “minimal additive effect”.
